Reference: ChEMBL document CHEMBL1201862, “PubChem BioAssay data set” (2004)
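Tested at 5 concentrations; 48 h exposure; 96-well plates; endpoints linearly interpolated, else capped at highest concentration. Here, GI50 denotes the concentration required for 50% inhibition of growth.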 The source made the active and inactive calls. Cut-off read from the data, not from the text of the source: active = GI50 up to about 1.1 µM and inactive = higher.

Legend:
Assay in all cases: DTP human tumour cell line panel, 48 h
HT-29 = test system: HT-29
SR = test system: SR
MDA-N = test system: MDA-N
MCF7 = test system: MCF7
HOP-92 = test system: HOP-92
NCI-H226 = test system: NCI-H226
SW-620 = test system: SW-620
Malme-3M = test system: Malme-3M
EKVX = test system: EKVX
Hs-578T = test system: Hs-578T
SF-539 = test system: SF-539
HOP-62 = test system: HOP-62
NCI-H23 = test system: NCI-H23
SK-MEL-28 = test system: SK-MEL-28
COLO 205 = test system: COLO 205
MOLT-4 = test system: MOLT-4
UO-31 = test system: UO-31
BT-549 = test system: BT-549

Structure (SMILES)	GI50 (HT-29)	GI50 (SR)	GI50 (MDA-N)	GI50 (MCF7)	GI50 (HOP-92)	GI50 (NCI-H226)	GI50 (SW-620)	GI50 (Malme-3M)	GI50 (EKVX)	GI50 (Hs-578T)	GI50 (SF-539)	GI50 (HOP-62)	GI50 (NCI-H23)	GI50 (SK-MEL-28)	GI50 (COLO 205)	GI50 (MOLT-4)	GI50 (UO-31)	GI50 (BT-549)
c1ccc([P+](CCCCCC[P+](c2ccccc2)(c2ccccc2)c2ccccc2)(c2ccccc2)c2ccccc2)cc1	7.24 µM (inactive)	21.1 µM (inactive)	16.1 µM (inactive)	5.94 µM (inactive)	8.32 µM (inactive)	8.87 µM (inactive)	18.5 µM (inactive)	37.3 µM (inactive)	54.5 µM (inactive)	15.3 µM (inactive)	5.24 µM (inactive)	9.18 µM (inactive)	4.71 µM (inactive)	17.5 µM (inactive)	2.68 µM (inactive)	22.9 µM (inactive)	> 100 µM (inactive)	
C1CCCCC2(CCCCCCCCC3(CCC1)OCCO3)OCCO2	> 100 µM (inactive)	> 100 µM (inactive)	> 100 µM (inactive)	> 100 µM (inactive)	> 100 µM (inactive)	> 100 µM (inactive)	> 100 µM (inactive)	> 100 µM (inactive)	> 100 µM (inactive)	> 100 µM (inactive)	> 100 µM (inactive)	> 100 µM (inactive)	> 100 µM (inactive)	> 100 µM (inactive)	> 100 µM (inactive)		< 0.01 µM (active)	
Oc1nc2cc3nc(O)c(O)nc3cc2nc1O	> 100 µM (inactive)	> 10 µM (inactive)		> 100 µM (inactive)		> 100 µM (inactive)	> 100 µM (inactive)	> 100 µM (inactive)	> 100 µM (inactive)	> 100 µM (inactive)	> 100 µM (inactive)		> 100 µM (inactive)	> 100 µM (inactive)	> 100 µM (inactive)	> 100 µM (inactive)	> 100 µM (inactive)	> 100 µM (inactive)
CC(=O)OCC12CN(C#N)C3C4COC(CC41)C1(C(=O)N(C)c4ccccc41)C32 (stereo not given)	33 µM (inactive)	14.6 µM (inactive)		19.3 µM (inactive)	19.7 µM (inactive)	15.8 µM (inactive)	22 µM (inactive)	21 µM (inactive)	20.7 µM (inactive)	18.2 µM (inactive)		24.6 µM (inactive)	15.6 µM (inactive)	19.2 µM (inactive)	16.7 µM (inactive)	7.48 µM (inactive)	13.3 µM (inactive)	2.64 µM (inactive)
CC(=O)NC1C(OCc2ccccc2)OC(CO)C(O)C1OCC(=O)NC(C)C(=O)NC(CCC(=O)OCCNC(=O)c1cccc2cc3ccccc3nc12)C(N)=O (stereo not given)	13 µM (inactive)	8.22 µM (inactive)	26.4 µM (inactive)	25.2 µM (inactive)	23.2 µM (inactive)	18.5 µM (inactive)	25.2 µM (inactive)	15.6 µM (inactive)	24.9 µM (inactive)			24.3 µM (inactive)	20.7 µM (inactive)	19.4 µM (inactive)	21.3 µM (inactive)	6.82 µM (inactive)	14.5 µM (inactive)	20.3 µM (inactive)
N[C@@H](Cc1ccc2oc3cc(=O)c4ccccc4c-3nc2c1)C(=O)O	31.5 µM (inactive)	24.7 µM (inactive)	16.6 µM (inactive)	2.36 µM (inactive)	> 100 µM (inactive)	34 µM (inactive)	> 100 µM (inactive)	3.37 µM (inactive)	> 100 µM (inactive)	45.8 µM (inactive)	74 µM (inactive)	21.9 µM (inactive)	13.4 µM (inactive)	62.4 µM (inactive)	11.5 µM (inactive)	40.7 µM (inactive)	> 100 µM (inactive)	
CCCCCCCCCCCCCC(=O)O.O=CC(O)C(O)C(OC1OC(CO)C(O)C(O)C1O)C(O)CO (stereo not given)	> 100 µM (inactive)	1 µM (active)		> 100 µM (inactive)	48.3 µM (inactive)	30.5 µM (inactive)	> 100 µM (inactive)	83.8 µM (inactive)		> 100 µM (inactive)	> 100 µM (inactive)	44.8 µM (inactive)	> 100 µM (inactive)	> 100 µM (inactive)	73.5 µM (inactive)		> 100 µM (inactive)	
Fc1ccc(C2(CCCN3CCc4[nH]c5cc(F)ccc5c4C3)OCCO2)cc1	3.81 µM (inactive)	7.52 µM (inactive)		10.6 µM (inactive)	2.99 µM (inactive)	19 µM (inactive)	14.3 µM (inactive)	12.3 µM (inactive)	15.3 µM (inactive)	3.92 µM (inactive)	12 µM (inactive)	13 µM (inactive)	16.2 µM (inactive)	12.6 µM (inactive)	8.75 µM (inactive)	6.67 µM (inactive)	3.33 µM (inactive)	
Cc1cccc(Br)[n+]1[O-]	> 100 µM (inactive)	> 100 µM (inactive)		> 100 µM (inactive)	> 100 µM (inactive)	96.4 µM (inactive)	> 100 µM (inactive)	> 100 µM (inactive)	> 100 µM (inactive)	> 100 µM (inactive)	> 100 µM (inactive)	> 100 µM (inactive)	> 100 µM (inactive)	> 100 µM (inactive)	> 100 µM (inactive)	> 100 µM (inactive)	> 100 µM (inactive)	> 100 µM (inactive)
CC1=CC[C@](C)(O)[C@@]2(C)CC[C@H]3C(=C(C)C)C(=O)C[C@]3(C)C[C@H]12	24.8 µM (inactive)	12.5 µM (inactive)		31.3 µM (inactive)	> 50 µM (inactive)	> 50 µM (inactive)	27 µM (inactive)		> 50 µM (inactive)	38.2 µM (inactive)	> 50 µM (inactive)	42.2 µM (inactive)	34.1 µM (inactive)	> 50 µM (inactive)	45.5 µM (inactive)	8.07 µM (inactive)	28.8 µM (inactive)	13.8 µM (inactive)
O=C(O)C(=O)Cc1ccc2c(c1)OCO2	> 100 µM (inactive)	> 100 µM (inactive)	> 100 µM (inactive)	> 100 µM (inactive)	> 100 µM (inactive)	65.5 µM (inactive)	> 100 µM (inactive)		> 100 µM (inactive)		> 100 µM (inactive)	> 100 µM (inactive)	> 100 µM (inactive)	> 100 µM (inactive)	> 100 µM (inactive)	83.8 µM (inactive)	> 100 µM (inactive)	> 100 µM (inactive)
C#CC(O)/C=C/C(O)CCCC(O)CC#CC(O)C#CC(O)CCCC(O)/C=C/CCCC(=O)CCCCCCCCCCCCCCCC(O)C(O)C#CC(=O)O (stereo not given)	28.1 µM (inactive)	19.3 µM (inactive)	> 50 µM (inactive)	> 50 µM (inactive)	> 50 µM (inactive)	> 50 µM (inactive)		> 50 µM (inactive)	> 50 µM (inactive)	> 50 µM (inactive)		> 50 µM (inactive)	> 50 µM (inactive)	> 50 µM (inactive)	> 50 µM (inactive)	43.6 µM (inactive)	10.8 µM (inactive)	
N=C(N)N/N=C/c1c(-c2ccccc2)nc2ccn3c(/C=N/N=C(N)N)c(-c4ccccc4)nc3n12	34.1 µM (inactive)			40.2 µM (inactive)	> 100 µM (inactive)	> 100 µM (inactive)	36.9 µM (inactive)	26.2 µM (inactive)	21.9 µM (inactive)	39.5 µM (inactive)	> 100 µM (inactive)	55.1 µM (inactive)	> 100 µM (inactive)	39.5 µM (inactive)	43.3 µM (inactive)	> 100 µM (inactive)	46.5 µM (inactive)	69 µM (inactive)
O=c1c2c(sc3ccccc13)NCN(CCc1ccccc1)C2	18.4 µM (inactive)	42.2 µM (inactive)	25.6 µM (inactive)	56.6 µM (inactive)	53 µM (inactive)	32 µM (inactive)	31.8 µM (inactive)	43.7 µM (inactive)	30.8 µM (inactive)		55.3 µM (inactive)	34.6 µM (inactive)	38.1 µM (inactive)	34.9 µM (inactive)	18.1 µM (inactive)	31.2 µM (inactive)	33.7 µM (inactive)	23.1 µM (inactive)
O=C(O)c1nc2ccc(C(F)(F)F)cc2nc1NCc1ccc(F)cc1		15.3 µM (inactive)	28 µM (inactive)	22.9 µM (inactive)	17.1 µM (inactive)	39.5 µM (inactive)	33 µM (inactive)		25.6 µM (inactive)		20.1 µM (inactive)	19.1 µM (inactive)	24 µM (inactive)	40.8 µM (inactive)	21.5 µM (inactive)	9.23 µM (inactive)	2.75 µM (inactive)	25.9 µM (inactive)
Cc1cc(C(F)(F)F)cc(-n2nc(NS(=O)(=O)c3cc(C)c(Cl)cc3S)nc2N)n1	42 µM (inactive)	23.4 µM (inactive)	52.8 µM (inactive)	45.1 µM (inactive)	32.7 µM (inactive)	40.3 µM (inactive)	> 100 µM (inactive)	> 100 µM (inactive)	55.6 µM (inactive)	41 µM (inactive)	> 10 µM (inactive)	23.3 µM (inactive)		55.3 µM (inactive)	> 100 µM (inactive)	24.3 µM (inactive)		
CCCCCCCC/C=C/CCCCCCCC1CC(O)C(=O)O1 (stereo not given)	33.4 µM (inactive)	27.7 µM (inactive)	59.7 µM (inactive)	32.4 µM (inactive)	26.7 µM (inactive)	> 100 µM (inactive)	55.5 µM (inactive)	54.1 µM (inactive)	50.8 µM (inactive)			41.4 µM (inactive)	44.8 µM (inactive)	72.3 µM (inactive)	30.1 µM (inactive)	32.9 µM (inactive)	62.8 µM (inactive)	28.9 µM (inactive)
